From patent publication US7615361B2, “Toxicity screening methods” (Ceetox, Inc., priority 2006, dated 2009)

Experiments:
H4IIE cells [1] = experiment: Cell number (propidium iodide); assay type: cell-based, rat
Protocol: (§1) One test compound (Compound A) was received as dry powder and evaluated for potential cytotoxicity in a battery of in vitro assays. The compound was tested using both rat cardiomyocytes (CM) from rat neonates and a rat hepatoma (H4IIE) cell line. […] The cell supernatant or the cells themselves were harvested for biochemical analysis. General cytotoxicity was evaluated by monitoring membrane integrity, mitochondrial function, cell proliferation, oxidative stress, and apoptosis. In addition, interaction with P-glycoprotein (PgP) on H4IIE cells and solubility of the test compound were also assessed. The means of each exposure group (n=3-7) were calculated for each assay performed.
(§2) Experimental Protocol: The test compound was provided and stored at 4° C. until needed. Dosing solutions were prepared in complete culture medium. The rat hepatoma (H4IIE) cell line was used as the test system.
Cell Proliferation: Cell proliferation in each well was measured with propidium iodide (PI). This specific nucleic acid binding dye fluoresces when intercalated within the nucleic acids. The 15 nm shift enhances PI fluorescence approximately 20 times while the excitation maxima are shifted 30-40 nm. During method development experiments, it was determined that Triton-X-100 was the best solution to permeabilize the H4IIE cells thereby allowing the PI access to intracellular RNA and DNA. Fluorescence was measured using a Packard Fusion plate reader or equivalent reader at 540 nm excitation and 610 nm emission.
Cell Proliferation: After incubation, the test compound was removed and Triton X-100 solution containing propidium iodide is added. The plate was incubated and read on a fluorescent plate reader. Data was collected as relative fluorescent units (RFU). The blank was subtracted from the final well RFU. It represents the average of the first and last columns which contain no cells on that particular plate. The controls are untreated cells allowed to grow on the same plate. The compounds are represented by several separate RFU data points for each of the tested concentrations. The percent change relative to controls was calculated by dividing the average RFU by the control cell RFU and multiplying by 100.

[2] = MemTox membrane leakage (AK / α-GST); assay type: cell-based, rat; conditions: rat
Protocol: as §1
(§3) Membrane Leakage (α-Glutathione S-transferase and/or Adenylate Kinase): The presence of Adenylate Kinase (AK) or α-Glutathione S-transferase (α-GST), both enzyme leakage markers, was measured in the culture medium using an activity assay for Adenylate Kinase and/or an ELISA assay for α-GST. At the end of the exposure period, the medium covering the cells in each well was removed and placed into new 96-well plates with appropriate labeling. […] Luminescence (AK) values were measured with a Packard Fusion or equivalent plate reader, and absorbance (α-GST) values were measured with a Packard SpectraCount™ or equivalent reader at 450 nm and reference absorbance at 650 nm.
(§4) Membrane Leakage (α-Glutathione S-transferase and/or Adenylate Kinase): Leakage of Adenylate Kinase or α-GST from the cell into the culture medium was determined by collecting the culture medium at the end of the exposure period. Thus, the values measured represent total enzyme leakage lost over the exposure period. The control for 100% dead or maximum enzyme release was based on cells treated with 1 mM digitonin at the time of dosing. Percent dead cells relative to digitonin treated cells was determined and then subtracted from 100% to yield the percent live cells.

H4IIE cells [3] = experiment: MTT reduction; assay type: cell-based, rat
Protocol: as §1, §2
(§5) Tetrazolium Dye Reduction: 3-[4,5-dimethylthiazol-2-yl]

Intracellular ATP levels = assay type: cell-based, rat; conditions: rat
Protocol: as §1
(§6) Intracellular ATP Levels: Cellular Adenosine triphosphate (ATP) was determined with an assay based on a reaction between ATP+D-luciferin+oxygen catalyzed by luciferase to yield Oxyluciferin+AMP+PPi+CO2+light. The emitted light is proportional to the amount of ATP present. […] In addition, a unique cell lysis reagent inhibits endogenous ATPases and therefore stabilizes cellular ATP by preventing its degradation to ADP. ATP is present in all-living cells and declines rapidly upon cell death. In addition, this assay in combination with the MTT assay provides an indicator of mitochondrial activity and energy status of the cell.
(§7) Plates were analyzed immediately or stored at −20° C. until needed. On the day of analysis, the plates were thawed and calibration curve prepared with ATP in the same liquid matrix as samples. ATP was quantified by adding ATP substrate solution and then reading luminescence on a Packard Fusion Luminescence or equivalent plate reader.
(§8) Intracellular ATP Levels: ATP levels in treated cells could be determined by using the regression coefficients obtained from the linear regression analysis of the calibration curve. Thus, values could be expressed as pmoles ATP/million cells. Background corrected luminescence was used to determine percent change relative to controls by dividing treated values by control values and multiplying by 100.

MTT reduction = assay type: cell-based, rat; conditions: rat
Protocol: as §1, §5

[4] = Intracellular total glutathione (GSH); assay type: cell-based, rat; conditions: rat, Total GSH TC50
Protocol: as §1, §2

[5] = Intracellular total glutathione (GSH); assay type: cell-based, rat; conditions: rat
Protocol: as §1

H4IIE cells [6] = experiment: Predicted Ctox from Tox-Panel; assay type: cell-based, rat; conditions: 24 HR, estimated sustained plasma concentration where toxicity would be expected in vivo
Protocol: Once all data for a given cluster of assays are received, the data are analyzed to obtain a detailed profile of the compound's toxicity. For example, most conveniently, the data are collated over a dose response range on a single graph. In such an embodiment, the measurement evaluated for each parameter (i.e., each indicator of cell health) at any given concentration is plotted as a percentage of a control measurement obtained in the absence of the compound. However, it should be noted that the data need not be plotted on a single graph, so long as all the parameters are analyzed collectively to yield detailed information of the effects of the concentration of the compound on the different parameters to yield an overall toxicity profile. As set forth below, this overall toxicity profile will facilitate a determination of a plasma concentration Ctox that is predicted to be toxic in vivo. Ctox represents an estimate of the sustained plasma concentration in vivo that would result in toxicity, such as hepatotoxicity or hematopoietic toxicity.
Studies such as these indicate that a preferred concentration for setting Ctox is the highest concentration at which there is no observed effect on any of the indicators being measured in the cluster analysis, especially a 24-hour cluster analysis. […] It will be apparent that 24 hour assays are more time-effective, and consequently, the 24 hour NOEL/Ctox represents a preferred data point to select as Ctox in a CATS assay. It will also be apparent that, with further time studies, it may be possible to select an equally suitable Ctox at other CATS assay time points (e.g., between 24 and 72 hours, or less than 24 hours).
In certain embodiments, the predicting comprises performing concentration response analyses of measurements from at least three separate assays that are employed in the cluster analysis. For example, in the cell health cluster, such predicting will involve monitoring the concentration response effect of the compound on a first health indicator which monitors cellular replication, a second cell health indicator which monitors mitochondrial function, and a third cell health indicator which monitors membrane integrity. Of course, it is understood that fourth, fifth, sixth or more cell health indicators also may be employed. From these concentration response analyses, the highest concentration of the chemical compound at which a measurable toxic effect of the chemical compound is not observable, i.e. NOEL, is determined and the Ctox is identified as the concentration that correlates to the NOEL. In choosing the concentrations of the compound for analysis, one of skill in the art should devise a dose response regimen which is selected to provide an indication of cell health at concentrations of at least two concentration values higher than the Ctox concentration.
The Ctox (H4IIE) value was developed using 24 hr in vitro toxicity data and was validated by retrospectively evaluating compounds across different classes of drugs in 14-day rat studies in which compounds were administered on a daily basis and pharmacokinetic data was available. […] Thus, Ctox values are only determined for the 24 hr in vitro results. The 6 hr toxicity analyses are typically not performed but are beneficial for interpretation of results when compound toxicity is high (e.g., Ctox≦20 μM).

H4IIE cells [7] = experiment: MemTox membrane leakage (AK / α-GST); assay type: cell-based, rat
Protocol: as §1, §2, §3, §4

H4IIE cells [8] = experiment: Intracellular ATP levels; assay type: cell-based, rat
Protocol: as §1, §2, §6, §7, §8

P-glycoprotein (PgP) = P-glycoprotein (PgP) binding: MTT with and without cyclosporin A; assay type: cell-based, rat; conditions: H4IIE 24 HR; for % Control (Compound + CSA) / % Control (Compound): MTT, 50 μM; for % Control (Compound + CSA): with cyclosporin A; for % Control (Compound): without CSA
Protocol: Several antiviral drugs are substrates for P-glycoprotein transporter (PgP).
P-glycoprotein (PgP) transport proteins are expressed in the bile canalicular membrane of normal liver. However, in neoplastic cells it is not uncommon to have expression of this transporter system in the plasma membrane. […] The existence of these transporters was evaluated with the Calcein-AM assay and with known substrates of PgP.

[9] = Metabolic stability (LC/MS, parent remaining); assay type: in vitro ADME, dog; conditions: 1 μM, 30 min at 37° C.
Protocol: (§9) Metabolic stability was conducted using pooled microsomes form induced (BNF/PB) male rat (Sprague-Dawley) animals and induced (BNF/PB) male dog (Beagle) animals. The test compounds were incubated for 30 min at 37° C. at concentrations of 1 μM. Subsequent LC/MS analysis measured disappearance of the parent molecule. The data are expressed as percent of parent remaining. Positive controls for highly metabolized compounds were included for comparison.
(§10) Metabolic Stability and Profiling by mass spectrometry: Metabolic stability was conducted using pooled male dog (beagle) microsomes and male rat (Sprague-Dawley) microsomes from induced (beta-Naphthoflavone/Phenobarbital, BNF/PB) animals. The test compounds were incubated for 30 min at 37° C. at concentrations of 1 and 10 μM. Subsequent analysis by mass spectrometry measured disappearance of the parent molecule. The data are expressed as percent of parent remaining. Positive controls for highly metabolized compounds were included for comparison.
(§11) Metabolic Stability: The analysis measured disappearance of the parent molecule. The data were expressed as percent of parent remaining. Positive controls for highly metabolized compounds were included for comparison.

[10] = Metabolic stability (LC/MS, parent remaining); assay type: in vitro ADME, rat; conditions: 1 μM, 30 min at 37° C.
Protocol: as §9, §10, §11

H4IIE cells [11] = experiment: Membrane lipid peroxidation (8-isoprostane ELISA); assay type: cell-based, rat
Protocol: (§12) One test compound (Compound A) was received as dry powder and evaluated for potential cytotoxicity in a battery of in vitro assays. The compound was tested using both rat cardiomyocytes (CM) from rat neonates and a rat hepatoma (H4IIE) cell line. […] Camptothecin and rotenone were included as positive control compounds. The cell supernatant or the cells themselves were harvested for biochemical analysis. General cytotoxicity was evaluated by monitoring membrane integrity, mitochondrial function, cell proliferation, oxidative stress, and apoptosis. In addition, interaction with P-glycoprotein (PgP) on H4IIE cells and solubility of the test compound were also assessed. The means of each exposure group (n=3-7) were calculated for each assay performed. Intra assay variation well-to-well was typically less than 10% with plate to plate variation typically less than 20%.
as §2

rat cardiomyocytes [12] = experiment: MemTox membrane leakage (AK / α-GST); assay type: cell-based
Protocol: as §1, §3, §4

rat cardiomyocytes [13] = experiment: Intracellular ATP levels; assay type: cell-based
Protocol: as §1, §6, §7, §8

rat cardiomyocytes [14] = experiment: MTT reduction; assay type: cell-based
Protocol: as §1, §5

H4IIE cells [15] = experiment: Intracellular total glutathione (GSH); assay type: cell-based, rat
Protocol: as §1, §2

rat cardiomyocytes [16] = experiment: Intracellular total glutathione (GSH); assay type: cell-based
Protocol: as §1

rat cardiomyocytes [17] = experiment: Membrane lipid peroxidation (8-isoprostane ELISA); assay type: cell-based
Protocol: as §12

[18] = Metabolic activation (disappearance of GSH); conditions: liver microsomes from Phenobarbital/BNF induced rats

CC(C)(C)NC(=O)[C@@H]1CN(Cc2cccnc2)CCN1C[C@@H](O)C[C@@H](Cc1ccccc1)C(=O)N[C@H]1c2ccccc2C[C@H]1O [indinavir]
Cell Number TC50 (H4IIE cells [1]; rat, 24 h): 300 µM
CC50 at 24 h [2]: > 300 µM
MTT TC50 (H4IIE cells [3]; rat, 24 h): 300 µM
CC50 at 24 h (Intracellular ATP levels): > 300 µM
CC50 at 24 h (MTT reduction): > 300 µM
CC50 at 24 h [4]: 249 µM
CC50 at 24 h [5]: 71 µM
Predicted Ctox (H4IIE cells [6]): 90 µM
MemTox TC50 (H4IIE cells [7]; rat, 24 h): 300 µM
ATP TC50 (H4IIE cells [8]; rat, 24 h): 300 µM
% Control (Compound + CSA) (P-glycoprotein (PgP)): 91.3%
% Control (Compound) (P-glycoprotein (PgP)): 106.0%
% Difference (P-glycoprotein (PgP); 1-20% low, 20-50% moderate, 50-100% high PgP interaction): 13.9%

Cc1ncc2n1-c1ccc(Cl)cc1C(c1ccccc1F)=NC2 [MIDAZOLAM]
% Parent Remaining Dog Microsomes [9]: 0.0%
% Parent Remaining Rat Microsomes [10]: 0.0%

Cc1cn([C@H]2C[C@H](N=[N+]=[N-])[C@@H](CO)O2)c(=O)[nH]c1=O [AZT]
CC50 (H4IIE cells [1]): > 300 µM
Membrane Lipid Peroxidation (H4IIE cells [11]): 0
CC50 (rat cardiomyocytes [12]): > 300 µM
CC50 (H4IIE cells [3]): > 300 µM
CC50 (rat cardiomyocytes [13]): > 300 µM
CC50 (rat cardiomyocytes [14]): > 300 µM
CC50 (H4IIE cells [15]): > 300 µM
CC50 (rat cardiomyocytes [16]): > 300 µM
Membrane Lipid Peroxidation (rat cardiomyocytes [17]): 0
CC50 (H4IIE cells [7]): > 300 µM
CC50 (H4IIE cells [8]): > 300 µM
% Control (Compound + CSA) (P-glycoprotein (PgP)): 99.0%
% Control (Compound) (P-glycoprotein (PgP)): 116.6%

CC(C)C(=O)Nc1ccc([N+](=O)[O-])c(C(F)(F)F)c1 [flutamide]
reduction in GSH (metabolic activation) [18]: most pronounced effects
